Earlier results in patent US5243035A, “Sialic acid-containing glycolipid derivatives” (Drug Delivery System Institute, Ltd., priority 1990, dated 1993).

Conditions: incorporated into liposome membrane; literature report

Substance: ganglioside GM1
- resistance of liposome to capture by the reticuloendothelial system: increased resistance to capture by the reticuloendothelial system
